Experiment: excess molar enthalpy (molar enthalpy of mixing); xn = mol fraction of the nth substance listed
Details: Liquid, Flow calorimetry

CC(=O)CC(C)=O [2,4-pentanedione] + CC(C)O
excess molar enthalpy [kcal/mol]
Details | 298.15 K | 313.15 K | 328.15 K
100 kPa, x1 = 0.0503 | 0.0985 | 0.101 | 0.103
100 kPa, x1 = 0.1501 | 0.235 | 0.247 | 0.262
100 kPa, x1 = 0.2502 | 0.321 | 0.344 | 0.365
100 kPa, x1 = 0.3499 | 0.374 | 0.403 | 0.43
100 kPa, x1 = 0.3997 | 0.39 | 0.421 | 0.448
100 kPa, x1 = 0.4498 | 0.401 | 0.432 | 0.459
100 kPa, x1 = 0.5001 | 0.405 | 0.436 | 0.462
100 kPa, x1 = 0.5507 | 0.403 | 0.432 | 0.457
100 kPa, x1 = 0.6 | 0.395 | 0.42 | 0.444
100 kPa, x1 = 0.6493 | 0.38 | 0.402 | 0.422
100 kPa, x1 = 0.7 | 0.356 | 0.376 | 0.393
100 kPa, x1 = 0.7999 | 0.285 | 0.296 | 0.305
100 kPa, x1 = 0.8503 | 0.234 | 0.238 | 0.246
100 kPa, x1 = 0.9504 | 0.0914 | 0.0934 | 0.0939
10000 kPa, x1 = 0.0502 | 0.0928 | 0.0986 | 0.103
10000 kPa, x1 = 0.1497 | 0.224 | 0.245 | 0.258
10000 kPa, x1 = 0.2496 | 0.312 | 0.341 | 0.362
10000 kPa, x1 = 0.3492 | 0.367 | 0.402 | 0.426
10000 kPa, x1 = 0.3989 | 0.384 | 0.42 | 0.445
10000 kPa, x1 = 0.449 | 0.395 | 0.431 | 0.456
10000 kPa, x1 = 0.4993 | 0.4 | 0.435 | 0.46
10000 kPa, x1 = 0.5498 | 0.399 | 0.431 | 0.455
10000 kPa, x1 = 0.5992 | 0.391 | 0.42 | 0.443
10000 kPa, x1 = 0.6486 | 0.376 | 0.401 | 0.422
10000 kPa, x1 = 0.6994 | 0.354 | 0.374 | 0.392
10000 kPa, x1 = 0.7993 | 0.284 | 0.294 | 0.304
10000 kPa, x1 = 0.8499 | 0.234 | 0.238 | 0.244
10000 kPa, x1 = 0.9503 | 0.0908 | 0.0922 | 0.0924

CC(=O)CC(C)=O [2,4-pentanedione] + CCCO
excess molar enthalpy [kcal/mol]
Details | 298.15 K | 313.15 K | 328.15 K
100 kPa, x1 = 0.0502 | 0.0721 | 0.0788 | 0.0869
100 kPa, x1 = 0.1502 | 0.184 | 0.205 | 0.224
100 kPa, x1 = 0.2502 | 0.259 | 0.289 | 0.321
100 kPa, x1 = 0.3504 | 0.311 | 0.347 | 0.385
100 kPa, x1 = 0.4001 | 0.327 | 0.364 | 0.404
100 kPa, x1 = 0.4502 | 0.338 | 0.374 | 0.416
100 kPa, x1 = 0.5006 | 0.344 | 0.38 | 0.421
100 kPa, x1 = 0.5501 | 0.344 | 0.378 | 0.419
100 kPa, x1 = 0.5997 | 0.339 | 0.371 | 0.41
100 kPa, x1 = 0.6495 | 0.327 | 0.355 | 0.392
100 kPa, x1 = 0.6994 | 0.309 | 0.333 | 0.366
100 kPa, x1 = 0.8006 | 0.248 | 0.261 | 0.286
100 kPa, x1 = 0.8504 | 0.202 | 0.211 | 0.233
100 kPa, x1 = 0.9493 | 0.0794 | 0.0835 | 0.0913
10000 kPa, x1 = 0.0502 | 0.0712 | 0.0775 | 0.0866
10000 kPa, x1 = 0.1504 | 0.181 | 0.201 | 0.222
10000 kPa, x1 = 0.2504 | 0.258 | 0.285 | 0.317
10000 kPa, x1 = 0.3507 | 0.309 | 0.343 | 0.379
10000 kPa, x1 = 0.4004 | 0.326 | 0.361 | 0.399
10000 kPa, x1 = 0.4505 | 0.338 | 0.371 | 0.413
10000 kPa, x1 = 0.501 | 0.344 | 0.375 | 0.418
10000 kPa, x1 = 0.5505 | 0.343 | 0.375 | 0.415
10000 kPa, x1 = 0.6001 | 0.339 | 0.367 | 0.405
10000 kPa, x1 = 0.6499 | 0.326 | 0.352 | 0.387
10000 kPa, x1 = 0.6997 | 0.308 | 0.329 | 0.36
10000 kPa, x1 = 0.8009 | 0.246 | 0.257 | 0.282
10000 kPa, x1 = 0.8506 | 0.201 | 0.207 | 0.228
10000 kPa, x1 = 0.9494 | 0.0791 | 0.0806 | 0.0894

CC(=O)CC(C)=O [2,4-pentanedione] + CCO
excess molar enthalpy [kcal/mol]
Details | 298.15 K | 313.15 K | 328.15 K
100 kPa, x1 = 0.0496 | 0.0592 | 0.0668 | 0.0752
100 kPa, x1 = 0.0992 | 0.109 | 0.124 | 0.142
100 kPa, x1 = 0.1496 | 0.156 | 0.175 | 0.2
100 kPa, x1 = 0.1992 | 0.193 | 0.219 | 0.25
100 kPa, x1 = 0.2491 | 0.225 | 0.255 | 0.29
100 kPa, x1 = 0.2988 | 0.251 | 0.283 | 0.324
100 kPa, x1 = 0.3482 | 0.273 | 0.309 | 0.353
100 kPa, x1 = 0.3988 | 0.29 | 0.327 | 0.373
100 kPa, x1 = 0.4484 | 0.301 | 0.34 | 0.387
100 kPa, x1 = 0.4988 | 0.309 | 0.348 | 0.395
100 kPa, x1 = 0.5476 | 0.312 | 0.349 | 0.396
100 kPa, x1 = 0.5991 | 0.309 | 0.345 | 0.39
100 kPa, x1 = 0.6484 | 0.3 | 0.334 | 0.377
100 kPa, x1 = 0.6976 | 0.286 | 0.316 | 0.355
100 kPa, x1 = 0.7494 | 0.264 | 0.29 | 0.324
100 kPa, x1 = 0.798 | 0.236 | 0.256 | 0.284
100 kPa, x1 = 0.849 | 0.196 | 0.211 | 0.233
100 kPa, x1 = 0.8992 | 0.146 | 0.154 | 0.169
100 kPa, x1 = 0.9485 | 0.0824 | 0.0848 | 0.0934
100 kPa, x1 = 0.9688 | 0.0518 | 0.0529 | 0.0585
10000 kPa, x1 = 0.0496 | 0.0575 | 0.0658 | 0.0749
10000 kPa, x1 = 0.0992 | 0.109 | 0.124 | 0.139
10000 kPa, x1 = 0.1496 | 0.153 | 0.174 | 0.198
10000 kPa, x1 = 0.1992 | 0.191 | 0.216 | 0.246
10000 kPa, x1 = 0.2491 | 0.223 | 0.253 | 0.287
10000 kPa, x1 = 0.2988 | 0.249 | 0.282 | 0.321
10000 kPa, x1 = 0.3482 | 0.27 | 0.306 | 0.348
10000 kPa, x1 = 0.3988 | 0.287 | 0.325 | 0.369
10000 kPa, x1 = 0.4484 | 0.299 | 0.338 | 0.382
10000 kPa, x1 = 0.4988 | 0.307 | 0.345 | 0.391
10000 kPa, x1 = 0.5476 | 0.309 | 0.347 | 0.391
10000 kPa, x1 = 0.5991 | 0.306 | 0.342 | 0.384
10000 kPa, x1 = 0.6484 | 0.298 | 0.332 | 0.371
10000 kPa, x1 = 0.6976 | 0.284 | 0.315 | 0.351
10000 kPa, x1 = 0.7494 | 0.262 | 0.289 | 0.317
10000 kPa, x1 = 0.798 | 0.234 | 0.256 | 0.276
10000 kPa, x1 = 0.849 | 0.195 | 0.211 | 0.224
10000 kPa, x1 = 0.8992 | 0.143 | 0.153 | 0.163
10000 kPa, x1 = 0.9485 | 0.0813 | 0.084 | 0.0911
10000 kPa, x1 = 0.9688 | 0.0514 | 0.0524 | 0.0568

CC(=O)CC(C)=O [2,4-pentanedione] + CO
excess molar enthalpy [kcal/mol]
Details | 298.15 K | 313.15 K | 328.15 K
100 kPa, x1 = 0.0502 | 0.0494 | 0.0583 | 0.0658
100 kPa, x1 = 0.0995 | 0.0896 | 0.107 | 0.122
100 kPa, x1 = 0.1494 | 0.125 | 0.15 | 0.172
100 kPa, x1 = 0.1998 | 0.154 | 0.187 | 0.215
100 kPa, x1 = 0.2496 | 0.178 | 0.217 | 0.251
100 kPa, x1 = 0.3006 | 0.199 | 0.243 | 0.282
100 kPa, x1 = 0.3504 | 0.215 | 0.263 | 0.307
100 kPa, x1 = 0.3995 | 0.227 | 0.278 | 0.325
100 kPa, x1 = 0.4492 | 0.237 | 0.289 | 0.338
100 kPa, x1 = 0.499 | 0.242 | 0.295 | 0.346
100 kPa, x1 = 0.5509 | 0.244 | 0.296 | 0.348
100 kPa, x1 = 0.5989 | 0.241 | 0.293 | 0.342
100 kPa, x1 = 0.6509 | 0.233 | 0.284 | 0.33
100 kPa, x1 = 0.7006 | 0.221 | 0.269 | 0.312
100 kPa, x1 = 0.7507 | 0.204 | 0.248 | 0.286
100 kPa, x1 = 0.8006 | 0.179 | 0.219 | 0.25
100 kPa, x1 = 0.85 | 0.147 | 0.183 | 0.205
100 kPa, x1 = 0.8983 | 0.109 | 0.136 | 0.152
100 kPa, x1 = 0.95 | 0.057 | 0.0741 | 0.0828
10000 kPa, x1 = 0.0501 | 0.0479 | 0.058 | 0.0654
10000 kPa, x1 = 0.0994 | 0.0879 | 0.107 | 0.121
10000 kPa, x1 = 0.1493 | 0.123 | 0.15 | 0.171
10000 kPa, x1 = 0.1997 | 0.152 | 0.187 | 0.214
10000 kPa, x1 = 0.2494 | 0.176 | 0.217 | 0.25
10000 kPa, x1 = 0.3004 | 0.196 | 0.243 | 0.28
10000 kPa, x1 = 0.3502 | 0.213 | 0.263 | 0.304
10000 kPa, x1 = 0.3993 | 0.225 | 0.277 | 0.323
10000 kPa, x1 = 0.449 | 0.235 | 0.289 | 0.335
10000 kPa, x1 = 0.4988 | 0.24 | 0.294 | 0.343
10000 kPa, x1 = 0.5507 | 0.242 | 0.296 | 0.345
10000 kPa, x1 = 0.5987 | 0.24 | 0.292 | 0.34
10000 kPa, x1 = 0.6507 | 0.233 | 0.283 | 0.328
10000 kPa, x1 = 0.7005 | 0.221 | 0.269 | 0.308
10000 kPa, x1 = 0.7505 | 0.204 | 0.248 | 0.282
10000 kPa, x1 = 0.8004 | 0.179 | 0.219 | 0.246
10000 kPa, x1 = 0.8498 | 0.147 | 0.182 | 0.203
10000 kPa, x1 = 0.8982 | 0.108 | 0.135 | 0.151
10000 kPa, x1 = 0.9499 | 0.0569 | 0.0725 | 0.0819

Source: the NIST ThermoML archive (doi:10.1021/je700492k)
